Tested on: heavy menstrual bleeding associated with uterine fibroids
Assay: Example 5A 12-week placebo-controlled study in uterine fibroids: efficacy (PBAC, volumes, NRS, UFS-QOL, anemia parameters)
Format: in vivo, human
Procedure: Study participants were Japanese women with HMB (heavy menstrual bleeding) associated with UF (uterine fibroids).
Only the largest myomas among those measurable at Visit 1 were measured throughout the study.
During the period between Visit 2 and 3, in which subjects must have experienced at least 1 regular menstrual cycle, the baseline values concerning efficacy evaluation, including PBAC scores and pain symptoms, were collected. The baseline PBAC score is the total PBAC score for the entire menstrual cycle immediately before Visit 3.
Visit 3 was on Days 1 to 5 of the second menstrual cycle after Visit 1. From Visits 3 to 7, subjects tried to visit the clinics in a fasted state and before taking the study drug.
When a dose was missed before breakfast, subjects took the study drug 30 minutes before either dinner or lunch on the same day.
Pain symptoms, other clinical symptoms and QOL were measured as secondary endpoints. Pain symptoms were evaluated in the patient diary from Visit 1 to the day before Visit 7 using the NRS score. The UFS-QOL score was used to evaluate other clinical symptoms and the QOL of subjects. Subjects completed the UFS-QOL questionnaire at Visits 3, 5, 6 and 7.
In particular, FIGS. 50-52 tabulate hemoglobin concentrations; FIG. 53 tabulates hematocrit percentages; FIG. 54 tabulates serum iron concentrations; and FIG. 55 tabulates ferritin concentrations.
PBAC scores were used in Example 5A, and provide an estimate of menstrual blood loss volume. The PBAC score was evaluated by having subjects record details related to menstrual blood loss on a PBAC score sheet distributed by the sponsor during the treatment period. […] These items represent the level of stained sanitary materials over the course of a menstrual cycle, with a total score ranging from 0 (none) to infinity. Higher scores indicate heavier blood loss. The PBAC score sheet also allows subjects to indicate: whether they experienced bleeding between periods that required sanitary protection; whether they passed clots, and if so, approximate size of the clots; whether they experienced episodes of flooding; and whether they required double protection (used both a pad and tampon simultaneously). As used in the PBAC score sheet of Example 5A, flooding is defined as overflowing, or staining, of clothing or underwear due to menstrual bleeding.
The total PBAC score was derived by summing points for each of the above.
All myoma and uterine volumes referred to herein were evaluated using transvaginal ultrasound. Specifically, the myoma volumes were calculated using the following formula: D1×D2×D3×π/6, where D1 is the longest diameter of the myoma; D2 is the longest diameter of the myoma at an angle perpendicular to D1; and D3 is the diameter of the myoma crossing the intersection of D1 and D2 perpendicular to the D1/D2 plane.

[1] = 10 mg, Week 6-12, listed as Relugolix
[2] = 10 mg, Week 12, listed as Relugolix
[3] = 20 mg, Week 6-12, listed as Relugolix

CONC(=O)Nc1ccc(-c2sc3c(c2CN(C)C)c(=O)n(-c2ccc(OC)nn2)c(=O)n3Cc2c(F)cccc2F)cc1 [Compound 1, N-(4-(1-(2,6-difluorobenzyl)-5-((dimethylamino)methyl)-3-(6-methoxy-3-pyridazinyl)-2,4-dioxo-1,2,3,4-tetrahydrothieno[2,3-d]pyrimidin-6-yl)phenyl)-N′-methoxyurea]
Amenorrhea (PBAC from Week 6 to 12 was 0), number of patients (10 mg (n = 48)): 8 n | complete response rate, uterine fibroids (10 mg or 20 mg): 21-44% | myoma volume (10 mg, Week 2): 116.68±152.833 cm^3 | uterine volume (10 mg, Week 2): 305.07±265.810 cm^3 | NRS score (10 mg, Week 2-6): 0.67±1.228 | subjects who achieved amenorrhea (PBAC = 0) (10 mg, Week 2-6): 12.5% | subjects with total PBAC score <10 (10 mg, Week 2-6): 16.7% | NRS score (10 mg, Week 2-12): 0.63±1.217 | subjects who achieved amenorrhea (PBAC = 0) (10 mg, Week 2-12): 10.4% | subjects with total PBAC score <10 (10 mg, Week 2-12): 12.5% | Fe value (serum iron) (10 mg, Week 4): 72.8 ± 40.58 µg/dL | Ht value (10 mg, Week 4): 39.48±3.327% | UFS-QOL HRQL total score (10 mg, Week 4): 11.28±10.342 | UFS-QOL symptom severity score (10 mg, Week 4): 23.78±14.736 | ferritin value (10 mg, Week 4): 14.71 ± 16.372 ng/mL | myoma volume (10 mg, Week 4): 90.89±108.009 cm^3 | uterine volume (10 mg, Week 4): 258.10±171.703 cm^3 | change of total PBAC score from baseline (10 mg, Week 6-12): −1.4±222.94 | subjects who achieved amenorrhea (PBAC = 0) (10 mg, Week 6-12): 16.7% | subjects with total PBAC score <10 (10 mg, Week 6-12): 20.8% | total PBAC score (mean±SD) (10 mg, Week 6-12): 268.0±276.37 | NRS score [1]: 0.6 | subjects who achieved amenorrhea (PBAC = 0) [1]: (16.7) % | Fe value (serum iron) (10 mg, Week 8): 67.3 ± 34.74 µg/dL | Ht value (10 mg, Week 8): 39.43±3.154% | UFS-QOL HRQL total score (10 mg, Week 8): 13.39±13.179 | UFS-QOL symptom severity score (10 mg, Week 8): 24.55±16.105 | myoma volume (10 mg, Week 8): 97.47±117.339 cm^3 | uterine volume (10 mg, Week 8): 259.64±190.452 cm^3 | Fe value (serum iron) (10 mg, Week 12): 75.3 ± 46.94 µg/dL | Ht value (10 mg, Week 12): 39.37±3.639% | UFS-QOL HRQL total score (10 mg, Week 12): 13.01±13.270 | UFS-QOL HRQL total, change from baseline (10 mg, Week 12): −1.61±10.586 | UFS-QOL symptom severity score (10 mg, Week 12): 23.28±16.053 | UFS-QOL symptom severity, change from baseline (10 mg, Week 12): −6.51±18.122 | change of Fe value from baseline (10 mg, Week 12): 11.0 ± 42.94 µg/dL | change of Hb from baseline (10 mg, Week 12): 0.35 ± 1.055 g/dL | change of Ht value from baseline (10 mg, Week 12): 0.77±2.792% | change of ferritin value from baseline (10 mg, Week 12): -2.56 ± 6.833 ng/mL | ferritin value (10 mg, Week 12): 10.81 ± 9.489 ng/mL | myoma volume (10 mg, Week 12): 97.09±126.578 cm^3 | percent change of myoma volume from baseline (10 mg, Week 12): −22.63±29.539% | percent change of uterine volume from baseline (10 mg, Week 12): −12.10±29.936% | uterine volume (10 mg, Week 12): 252.93±175.064 cm^3 | UFS-QOL HRQL total, change from baseline [2]: −2 | UFS-QOL symptom severity, change from baseline [2]: −7 | change of Hb from baseline [2]: 0.3 g/dL | percent change of myoma volume from baseline [2]: −23% | percent change of uterine volume from baseline [2]: −12% | Amenorrhea (PBAC from Week 6 to 12 was 0), number of patients (20 mg (n = 56)): 21 n | myoma volume (20 mg, Week 2): 98.63±112.118 cm^3 | uterine volume (20 mg, Week 2): 294.81±269.990 cm^3 | NRS score (20 mg, Week 2-6): 0.48±0.970 | subjects who achieved amenorrhea (PBAC = 0) (20 mg, Week 2-6): 33.9% | subjects with total PBAC score <10 (20 mg, Week 2-6): 42.9% | NRS score (20 mg, Week 2-12): 0.44±0.855 | subjects who achieved amenorrhea (PBAC = 0) (20 mg, Week 2-12): 28.6% | subjects with total PBAC score <10 (20 mg, Week 2-12): 32.1% | Fe value (serum iron) (20 mg, Week 4): 77.4 ± 49.74 µg/dL | Ht value (20 mg, Week 4): 40.06±3.773% | UFS-QOL HRQL total score (20 mg, Week 4): 11.10±13.829 | UFS-QOL symptom severity score (20 mg, Week 4): 23.12±14.327 | ferritin value (20 mg, Week 4): 14.77 ± 11.536 ng/mL | myoma volume (20 mg, Week 4): 101.51±132.419 cm^3 | uterine volume (20 mg, Week 4): 291.73±327.844 cm^3 | NRS score (20 mg, Week 6-12): 0.35±0.618 | change of total PBAC score from baseline (20 mg, Week 6-12): −153.0±194.83 | subjects who achieved amenorrhea (PBAC = 0) (20 mg, Week 6-12): 38.2% | subjects with total PBAC score <10 (20 mg, Week 6-12): 43.6% | NRS score [3]: 0.4 | subjects who achieved amenorrhea (PBAC = 0) [3]: (38.2) % | Fe value (serum iron) (20 mg, Week 8): 84.2 ± 49.42 µg/dL | Ht value (20 mg, Week 8): 40.39±3.389%

Source: US11957684B2, “Treatment of heavy menstrual bleeding associated with uterine fibroids” (Sumitomo Pharma Switzerland GmbH, priority 2016, dated 2024)
